Article PMC8836281, “Characterisation of Endogenous Peptides Present in Virgin Olive Oil” (International Journal of Molecular Sciences, 2022)
Like-named read-outs stand apart in the source and are kept apart here. Each block holds one molecule with its values, some of them ahead of it. Residues, ends and D or L forms follow the SMILES beside them. No end group written: not given here.

Experiments:
rabbit-lung ACE = biological target: T1, rabbit-lung ACE (Oryctolagus cuniculus, UniProt P12822); assay: ACE-inhibitory activity of synthetic peptides (fluorescence assay, substrate Abz-Gly-Phe(NO2)-Pro); type: biochemical; conditions: means ± SD of three different experiments, ND = not detected, read-out: ACEi Activity IC50 (µM) ± SD
T1 construct: rabbit-lung ACE (E.C.3.4.15.1., Sigma-Aldrich); purchased Sigma-Aldrich; host or cells: rabbit lung (tissue-derived enzyme)
T1 sequence (P12822 34-1310): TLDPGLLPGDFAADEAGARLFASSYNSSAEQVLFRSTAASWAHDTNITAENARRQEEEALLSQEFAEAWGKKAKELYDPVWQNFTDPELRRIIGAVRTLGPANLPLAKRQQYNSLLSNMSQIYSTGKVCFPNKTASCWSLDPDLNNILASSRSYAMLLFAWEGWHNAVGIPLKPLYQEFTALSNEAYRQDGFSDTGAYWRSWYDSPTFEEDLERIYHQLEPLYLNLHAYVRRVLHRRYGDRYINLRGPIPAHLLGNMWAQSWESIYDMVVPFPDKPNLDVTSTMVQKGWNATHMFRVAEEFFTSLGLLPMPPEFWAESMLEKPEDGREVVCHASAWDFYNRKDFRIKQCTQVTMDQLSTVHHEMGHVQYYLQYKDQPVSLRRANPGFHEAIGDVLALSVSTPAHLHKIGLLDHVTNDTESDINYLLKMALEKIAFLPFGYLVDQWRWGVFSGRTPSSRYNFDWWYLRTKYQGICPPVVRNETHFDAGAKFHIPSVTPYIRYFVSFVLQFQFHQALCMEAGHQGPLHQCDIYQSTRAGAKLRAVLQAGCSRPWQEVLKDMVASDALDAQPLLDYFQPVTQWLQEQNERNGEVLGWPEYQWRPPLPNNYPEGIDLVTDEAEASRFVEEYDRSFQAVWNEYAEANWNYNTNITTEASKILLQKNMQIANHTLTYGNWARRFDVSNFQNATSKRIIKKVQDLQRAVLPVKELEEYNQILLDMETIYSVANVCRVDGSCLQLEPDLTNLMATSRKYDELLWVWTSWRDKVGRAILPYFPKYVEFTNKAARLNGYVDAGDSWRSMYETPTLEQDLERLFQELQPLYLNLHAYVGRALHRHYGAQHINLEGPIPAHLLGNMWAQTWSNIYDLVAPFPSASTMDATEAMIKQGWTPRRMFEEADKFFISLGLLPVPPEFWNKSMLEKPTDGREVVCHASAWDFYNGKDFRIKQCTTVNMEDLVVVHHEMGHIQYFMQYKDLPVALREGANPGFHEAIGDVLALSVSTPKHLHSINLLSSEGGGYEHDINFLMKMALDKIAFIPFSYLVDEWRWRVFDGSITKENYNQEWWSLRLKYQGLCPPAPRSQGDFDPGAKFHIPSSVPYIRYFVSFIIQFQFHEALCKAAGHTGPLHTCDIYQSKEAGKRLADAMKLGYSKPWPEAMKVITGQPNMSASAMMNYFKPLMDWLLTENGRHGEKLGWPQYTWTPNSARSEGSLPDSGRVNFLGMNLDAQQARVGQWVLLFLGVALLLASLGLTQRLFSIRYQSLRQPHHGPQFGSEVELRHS
Experimental: The ACE-inhibitory activity of the synthetic peptides was determined according to the method described in [84], with some modifications. This assay is based on the ability of ACE to hydrolyse the substrate o-aminobenzoylglycyl-p-nitrophenylalanyl-proline (Abz-Gly-Phe-(NO2)-Pro, Bachem Feinchemikalien, Bubendorf, Switzerland), producing the fluorescent product o-aminobenzoylglycine (Abz-Gly). Reagents used include: buffer A: 150 mM Tris-HCl buffer (pH 8.3), with 0.1 µM ZnCl2; buffer B: 150 mM de Tris-HCl buffer (pH 8.4), with 1125 mM NaCl; ACE solution (stock): rabbit-lung ACE (E.C.3.4.15.1., Sigma-Aldrich), dissolved in buffer A containing 50% glycerol to make an enzyme concentration of 1 U/mL. This solution was diluted 1/20 with buffer A to obtain the working solution (50 mU/mL), which was prepared fresh every day to conduct the experiment. The substrate solution (Abz-Gly-Phe(NO2)-Pro) was dissolved in buffer B to a final concentration of 0.45 mM. This solution was also prepared every day before its use and was protected from light and kept at 4 °C. The assay was carried out using a fluorescence technique. Black polystyrene plates of 96 wells (Thermo Scientific, Waltham, Massachussets, USA) were used. The wells contained the following reaction solutions: control = 50 μL of Milli-Q water and 50 μL of ACE solution; blank = 50 μL of Milli-Q water and 50 μL of buffer A; sample = 50 μL of sample and 50 μL of ACE solution; sample blank = 50 μL of sample and 50 μL of buffer A. The enzymatic reaction was initiated by adding 200 μL (final volume in each well 300 μL) of substrate solution, and the plate was immediately mixed and incubated at 37 °C in a VICTORX5 fluorometer (PerkinElmer, USA). The fluorescence generated was measured after 30 min using 355 and 420 nm as excitation and emission wavelengths, respectively. The ACE-inhibitory activity of each sample was determined in triplicate. The ACE-inhibitory activity was calculated using the following formula: ACE inhibitory activity (%)=(FC−FB)−(FS−FBs)/FC−FB × 100 where FC (control) is the fluorescence emitted after the action of ACE on the substrate, without inhibitor (i.e., sample); FB (blank) is the fluorescence emitted by the substrate; FS (sample) is the fluorescence emitted after the action of ACE on the substrate, with inhibitor sample; and FBs (blank sample) are the fluorescences emitted by the substrate and the sample.
The ACE-inhibitory activity is expressed as IC50, which is the concentration of inhibitor required to inhibit the activity of ACE by 50%.

ACE = conditions: read-out: ACE inhibition IC50, cited from earlier work
[1] = test system: pre- or hypertensive humans; set-up: method as in PMID 25608938; conditions: supplementation of pre- or hypertensive humans for longer than four weeks; meta-analysis of 30 trials; cited from earlier work
[2] = cited from earlier work

Molecule: IPP
IC50 (ACE; peptides described in dairy): 5 µM | effect on systolic and diastolic blood pressure [1]: significant reduction in systolic and diastolic blood pressure

Molecule: CPANGFY [Peptide no. 19, CPANGFY]
IC50 (rabbit-lung ACE): 3.76 ± 0.39 µM

Molecule: SVY
IC50 (ACE; C-terminal di-/tripeptide of de novo peptide no. 1): 8.1 µM

Molecule: N[C@@H](CCC(=O)N[C@@H](CS)C(=O)NCC(=O)O)C(=O)O [glutathione]
antioxidant activity (TEAC) [2]: 0.9 TEAC

Molecule: VCGEAFGKA [Peptide no. 14]
IC50 (rabbit-lung ACE): 57.2 ± 4.31 µM

Molecule: VPP
IC50 (ACE; peptides described in dairy): 9 µM | effect on systolic and diastolic blood pressure [1]: significant reduction in systolic and diastolic blood pressure

Further lines, results first:

IC50 (rabbit-lung ACE): 25.6 ± 0.41 µM
Molecule: CC(C)[C@H](NC(=O)[C@H](CO)NC(=O)[C@H](Cc1ccc(O)cc1)NC(=O)[C@H](CS)NC(=O)[C@@H](N)CS)C(=O)N[C@@H](Cc1ccc(O)cc1)C(=O)O [Peptide no. 1 de novo, CCYSVY] (H-CCYSVY-OH)

IC50 (rabbit-lung ACE): 0.98 ± 0.04 µM
Molecule: NALLCSNS [compound 18]

IC50 (rabbit-lung ACE): 41.5 ± 2.09 µM
Molecule: DCHYFL [Peptide no. 2 de novo, DCHYFL]
